Measured values as given in the supplement of paper PMC5908809.

Tests used:
[1] = test system: normal NK cells expanded with K562-aAPC; experiment: drug sensitivity score (DSS) (DSS units); higher = more sensitive; extreme values may be limits of the assay; conditions: 72 h; IL-2 2.5 ng/mL
Description: (§1)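 Drug sensitivity and resistance testing on K562-aAPC-expanded normal NK cells: 5 concentrations (10-fold steps over a 10,000-fold range), 72 h at 37 °C, viability by CellTiter-Glo normalised to DMSO and benzethonium chloride controls; DSS from the fitted curve.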

DERL-7 (IL-2 2.5 ng/mL) [2] = experiment: percent inhibition of viability; higher = more inhibition; conditions: 72 h
NK-92 (IL-2 2.5 ng/mL) [3] = experiment: as above; conditions: 72 h
KHYG-1 (IL-2 2.5 ng/mL) [4] = experiment: as above; conditions: 72 h
[5] = test system: normal primary NK cells, pool 2 (3 donors) (IL-2 2.5 ng/mL); experiment: as above; conditions: 72 h
YT (IL-2 2.5 ng/mL) [6] = experiment: as above; conditions: 72 h
[7] = test system: normal primary NK cells, pool 1 (3 donors), resting (IL-2 0 ng/mL); experiment: as above; conditions: 72 h
[8] = test system: normal primary NK cells, pool 3 (3 donors) (IL-2 2.5 ng/mL); experiment: as above; conditions: 72 h
KAI3 (IL-2 2.5 ng/mL) [9] = experiment: as above; conditions: 72 h
SNK-6 (IL-2 2.5 ng/mL) [10] = experiment: as above; conditions: 72 h
NK-YS (IL-2 2.5 ng/mL) [11] = experiment: as above; conditions: 72 h
[12] = test system: normal primary NK cells, pool 1 (3 donors) (IL-2 2.5 ng/mL); experiment: as above; conditions: 72 h
NKL (IL-2 2.5 ng/mL) [13] = experiment: as above; conditions: 72 h
IMC-1 (IL-2 20 ng/mL) [14] = experiment: as above; conditions: 72 h
DERL-7 (IL-2 2.5 ng/mL) [15] = experiment: drug sensitivity score (DSS) (DSS units); higher = more sensitive; extreme values may be limits of the assay; conditions: 72 h
NK-92 (IL-2 2.5 ng/mL) [16] = experiment: as above; conditions: 72 h
KHYG-1 (IL-2 2.5 ng/mL) [17] = experiment: as above; conditions: 72 h
[18] = test system: normal primary NK cells, pool 2 (3 donors) (IL-2 2.5 ng/mL); experiment: as above; conditions: 72 h
YT (IL-2 2.5 ng/mL) [19] = experiment: as above; conditions: 72 h
[20] = test system: normal primary NK cells, pool 1 (3 donors), resting (IL-2 0 ng/mL); experiment: as above; conditions: 72 h
[21] = test system: normal primary NK cells, pool 3 (3 donors) (IL-2 2.5 ng/mL); experiment: as above; conditions: 72 h
KAI3 (IL-2 2.5 ng/mL) [22] = experiment: as above; conditions: 72 h
SNK-6 (IL-2 2.5 ng/mL) [23] = experiment: as above; conditions: 72 h
NK-YS (IL-2 2.5 ng/mL) [24] = experiment: as above; conditions: 72 h
[25] = test system: normal primary NK cells, pool 1 (3 donors) (IL-2 2.5 ng/mL); experiment: as above; conditions: 72 h
NKL (IL-2 2.5 ng/mL) [26] = experiment: as above; conditions: 72 h
IMC-1 (IL-2 20 ng/mL) [27] = experiment: as above; conditions: 72 h
[28] = test system: normal NK cells expanded with K562-aAPC; experiment: percent inhibition of viability; higher = more inhibition; conditions: 72 h, IL-2 2.5 ng/mL
Description: as §1

Cn1cc(-c2ccc3nnc(C(F)(F)c4ccc5ncccc5c4)n3n2)cn1 (max concentration tested 10000 nM)
Conditions | drug sensitivity score
DERL-7 (IL-2 2.5 ng/mL) [15] | 0
IMC-1 (IL-2 20 ng/mL) [27] | 1.63
KAI3 (IL-2 2.5 ng/mL) [22] | 0
KHYG-1 (IL-2 2.5 ng/mL) [17] | 0
NK-92 (IL-2 2.5 ng/mL) [16] | 2.9
NK-YS (IL-2 2.5 ng/mL) [24] | 0
NKL (IL-2 2.5 ng/mL) [26] | 2.43
SNK-6 (IL-2 2.5 ng/mL) [23] | 5.6
YT (IL-2 2.5 ng/mL) [19] | 0.87
[1] | 0.71
[18] | 0
[20] | 0
[21] | 0
[25] | 0

percent inhibition of viability [%]
Conditions | 1 nM | 10 nM | 100 nM | 1000 nM | 10000 nM
DERL-7 (IL-2 2.5 ng/mL) [2] | -6.47 | 1.35 | -5.46 | -8.39 | -0.31
IMC-1 (IL-2 20 ng/mL) [14] | 2.83 | 3.66 | 7.99 | 14.2 | 18.1
KAI3 (IL-2 2.5 ng/mL) [9] | 3.43 | 0.25 | 2.09 | 1.51 | 5.42
KHYG-1 (IL-2 2.5 ng/mL) [4] | 0.7 | 1.87 | -1.15 | 9.39 | 7.11
NK-92 (IL-2 2.5 ng/mL) [3] | 3.19 | 2.36 | 1.58 | 20 | 16.7
NK-YS (IL-2 2.5 ng/mL) [11] | -0.7 | -2.18 | -0.71 | 3.19 | 6.06
NKL (IL-2 2.5 ng/mL) [13] | 15.6 | 0.97 | 2.69 | 5.68 | 32.8
SNK-6 (IL-2 2.5 ng/mL) [10] | -5.06 | -3.02 | -0.1 | 27.9 | 44
YT (IL-2 2.5 ng/mL) [6] | 2.08 | 2.01 | -0.66 | 8.07 | 15.4
[5] | -8.18 | -11 | -4.17 | -3.65 | 7.05
[7] | -30.2 | -15.2 | -20.6 | -28.2 | -14.9
[8] | -11.6 | -17.9 | -6.24 | 0.44 | 0.55
[12] | -10.8 | -1.09 | -9.66 | -1.21 | 4
[28] | 2.09 | -3.72 | 2.32 | 3.57 | 16.4

CCC(C)n1ncn(-c2ccc(N3CCN(c4ccc(OCC5COC(Cn6cncn6)(c6ccc(Cl)cc6Cl)O5)cc4)CC3)cc2)c1=O (configuration not stated) [Itraconazole] (max concentration tested 5000 nM)
Conditions | drug sensitivity score
DERL-7 (IL-2 2.5 ng/mL) [15] | 6.05
IMC-1 (IL-2 20 ng/mL) [27] | 2.54
KAI3 (IL-2 2.5 ng/mL) [22] | 7.24
KHYG-1 (IL-2 2.5 ng/mL) [17] | 6.51
NK-92 (IL-2 2.5 ng/mL) [16] | 10.1
NK-YS (IL-2 2.5 ng/mL) [24] | 5.2
NKL (IL-2 2.5 ng/mL) [26] | 4.25
SNK-6 (IL-2 2.5 ng/mL) [23] | 10.3
YT (IL-2 2.5 ng/mL) [19] | 2.44
[1] | 1.9
[18] | 2.45
[20] | 0.93
[21] | 2.08
[25] | 2.13

percent inhibition of viability [%]
Conditions | 0.5 nM | 5 nM | 50 nM | 500 nM | 5000 nM
DERL-7 (IL-2 2.5 ng/mL) [2] | 7.65 | 4.19 | -0.11 | 8.64 | 83.6
IMC-1 (IL-2 20 ng/mL) [14] | -1.82 | -3.66 | -2.37 | 9.1 | 29.4
KAI3 (IL-2 2.5 ng/mL) [9] | 6.2 | -4.32 | -3.2 | 12.8 | 91.9
KHYG-1 (IL-2 2.5 ng/mL) [4] | -2.72 | 3.74 | 1.39 | 6.98 | 98.1
NK-92 (IL-2 2.5 ng/mL) [3] | -7.29 | -11.1 | -8.89 | 38.2 | 91.5
NK-YS (IL-2 2.5 ng/mL) [11] | 3.15 | -1.22 | -1.67 | 8.46 | 68.9
NKL (IL-2 2.5 ng/mL) [13] | 6.31 | -2.93 | -3.73 | -6.13 | 84.8
SNK-6 (IL-2 2.5 ng/mL) [10] | -8.18 | 3.54 | 19.4 | 39.2 | 93.4
YT (IL-2 2.5 ng/mL) [6] | -3.86 | -5.55 | -5.66 | 0.63 | 45.8
[5] | 0.8 | -6.34 | 8.01 | 14.5 | 25.8
[7] | -22.8 | -11.8 | -19.2 | -4.28 | 28.1
[8] | -9.47 | -2.98 | -1.54 | 12.1 | 22.5
[12] | -10.8 | -2.66 | -5.12 | 4.85 | 30.5
[28] | -0.18 | -0.93 | 0.65 | 2.54 | 33

C=CC(=O)N1CCC[C@@H](n2nc(-c3ccc(Oc4ccccc4)cc3)c3c(N)ncnc32)C1 [Ibrutinib] (max concentration tested 1000 nM)
Conditions | drug sensitivity score
DERL-7 (IL-2 2.5 ng/mL) [15] | 2.68
IMC-1 (IL-2 20 ng/mL) [27] | 0
KAI3 (IL-2 2.5 ng/mL) [22] | 1.54
KHYG-1 (IL-2 2.5 ng/mL) [17] | 0
NK-92 (IL-2 2.5 ng/mL) [16] | 0.3
NK-YS (IL-2 2.5 ng/mL) [24] | 0.35
NKL (IL-2 2.5 ng/mL) [26] | 4.8
SNK-6 (IL-2 2.5 ng/mL) [23] | 0
YT (IL-2 2.5 ng/mL) [19] | 3.17
[1] | 0
[18] | 0
[20] | 2.74
[21] | 0
[25] | 2.44

percent inhibition of viability [%]
Conditions | 0.1 nM | 1 nM | 10 nM | 100 nM | 1000 nM
DERL-7 (IL-2 2.5 ng/mL) [2] | 2.78 | 2.44 | 6.17 | 7.83 | 34.1
IMC-1 (IL-2 20 ng/mL) [14] | -4.48 | -0.1 | -1.11 | -2.87 | -8.75
KAI3 (IL-2 2.5 ng/mL) [9] | 1.69 | 2.89 | 0.25 | 8.29 | 20.5
KHYG-1 (IL-2 2.5 ng/mL) [4] | -6.77 | -1.35 | -1.82 | 0.67 | 8.69
NK-92 (IL-2 2.5 ng/mL) [3] | -15.8 | -16.1 | -8.18 | 0.25 | 15.7
NK-YS (IL-2 2.5 ng/mL) [11] | -1.09 | -1.95 | -0.26 | 0.88 | 15.6
NKL (IL-2 2.5 ng/mL) [13] | -5.52 | 0.29 | 10.1 | 24.2 | 30
SNK-6 (IL-2 2.5 ng/mL) [10] | -11.4 | 9.91 | -7.4 | 1.24 | 8.78
YT (IL-2 2.5 ng/mL) [6] | -2.79 | -1.68 | -0.35 | 13.8 | 31.3
[5] | -6.12 | 0.44 | 7.05 | -9.76 | 10.5
[7] | -3.67 | 8.12 | 16.8 | 10 | 22.4
[8] | -5.07 | 4.6 | -2.73 | -10.7 | -14
[12] | -0.62 | 9.62 | 12.7 | 12.1 | 21
[28] | -2.6 | -5.62 | -10 | -0.99 | -0.93
